Source: PubChem BioAssay (NCI)
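Exposure lasted 48 hours, with cells grown in 96-well plates and compounds tested at five concentrations. Abbreviation: GI50, concentration required for 50% inhibition of growth. TGI is the concentration that stops growth completely.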

What was measured:
Experiment in all cases: NCI tumour cell line growth inhibition, 48 h; in the data active = GI50 below about 0.43 µM; inactive = the rest
A549 NSCLC = test system: A549 NSCLC
OVCAR-4 ovarian = test system: OVCAR-4 ovarian
SK-MEL-2 melanoma = test system: SK-MEL-2 melanoma
RPMI-8226 leukemia = test system: RPMI-8226 leukemia
KM12 colon = test system: KM12 colon
CAKI-1 renal = test system: CAKI-1 renal
HL-60(TB) leukemia = test system: HL-60(TB) leukemia
M14 melanoma = test system: M14 melanoma
SR leukemia = test system: SR leukemia
NCI-H460 lung = test system: NCI-H460 lung
NCI/ADR-RES ovarian = test system: NCI/ADR-RES ovarian
SK-OV-3 ovarian = test system: SK-OV-3 ovarian
A498 renal = test system: A498 renal
K-562 leukemia = test system: K-562 leukemia
U251 CNS = test system: U251 CNS
HCT-116 colon = test system: HCT-116 colon
MCF7 breast = test system: MCF7 breast
SF-539 CNS = test system: SF-539 CNS
HS 578T breast = test system: HS 578T breast
OVCAR-3 ovarian = test system: OVCAR-3 ovarian
SNB-19 CNS = test system: SNB-19 CNS
COLO 205 colon = test system: COLO 205 colon
OVCAR-8 ovarian = test system: OVCAR-8 ovarian
OVCAR-5 ovarian = test system: OVCAR-5 ovarian
EKVX NSCLC = test system: EKVX NSCLC
T-47D breast = test system: T-47D breast
NCI-H226 lung = test system: NCI-H226 lung
MALME-3M melanoma = test system: MALME-3M melanoma
PC-3 prostate = test system: PC-3 prostate
SW-620 colon = test system: SW-620 colon
CCRF-CEM leukemia = test system: CCRF-CEM leukemia
RXF 393 renal = test system: RXF 393 renal
UACC-62 melanoma = test system: UACC-62 melanoma
HOP-92 NSCLC = test system: HOP-92 NSCLC
IGROV1 ovarian = test system: IGROV1 ovarian
SF-268 CNS = test system: SF-268 CNS
LOX IMVI melanoma = test system: LOX IMVI melanoma
SN12C renal = test system: SN12C renal
NCI-H522 lung = test system: NCI-H522 lung
SK-MEL-28 melanoma = test system: SK-MEL-28 melanoma
HCT-15 colon = test system: HCT-15 colon
SK-MEL-5 melanoma = test system: SK-MEL-5 melanoma
DU-145 prostate = test system: DU-145 prostate
MDA-MB-231 breast = test system: MDA-MB-231 breast
HT29 colon = test system: HT29 colon
786-0 renal = test system: 786-0 renal
UACC-257 melanoma = test system: UACC-257 melanoma
ACHN renal = test system: ACHN renal
SF-295 CNS = test system: SF-295 CNS
MDA-MB-435 = test system: MDA-MB-435
BT-549 breast = test system: BT-549 breast
NCI-H23 lung = test system: NCI-H23 lung
MOLT-4 leukemia = test system: MOLT-4 leukemia
SNB-75 CNS = test system: SNB-75 CNS
TK-10 renal = test system: TK-10 renal
UO-31 renal = test system: UO-31 renal
HOP-62 NSCLC = test system: HOP-62 NSCLC
HCC-2998 colon = test system: HCC-2998 colon

C=C(C)[C@@H]1CC[C@]2(C)[C@H](CC=C3[C@@H]4[C@@H](C)[C@H](C)CC[C@]4(C(N)=O)CC[C@]32C)[C@@]1(C)CCC#N
76.5 µM: TGI (UACC-257 melanoma)
42.8 µM: TGI (MDA-MB-231 breast)
29 µM: TGI (UACC-62 melanoma)
17.2 µM: TGI (NCI/ADR-RES ovarian)
6.27 µM: TGI (RPMI-8226 leukemia)
22.7 µM: TGI (SK-MEL-28 melanoma)
91.5 µM: TGI (TK-10 renal)
29.9 µM: TGI (HCT-116 colon)
29.6 µM: TGI (NCI-H460 lung)
20.1 µM: TGI (LOX IMVI melanoma)
21.1 µM: TGI (HT29 colon)
5.75 µM: TGI (786-0 renal)
26.1 µM: TGI (UO-31 renal)
27.5 µM: TGI (OVCAR-8 ovarian)
11.4 µM: TGI (RXF 393 renal)
45 µM: TGI (CCRF-CEM leukemia)
15.6 µM: TGI (COLO 205 colon)
16.6 µM: TGI (SF-539 CNS)
6.03 µM: TGI (HL-60(TB) leukemia)
18 µM: TGI (BT-549 breast)
23.6 µM: TGI (M14 melanoma)
27 µM: TGI (NCI-H226 lung)
27.9 µM: TGI (MALME-3M melanoma)
26.4 µM: TGI (DU-145 prostate)
21 µM: TGI (PC-3 prostate) | TGI (MOLT-4 leukemia)
> 100 µM: TGI (A549 NSCLC) | TGI (OVCAR-4 ovarian) | TGI (CAKI-1 renal) | TGI (SK-OV-3 ovarian) | TGI (K-562 leukemia) | TGI (MCF7 breast) | TGI (SNB-19 CNS) | TGI (OVCAR-5 ovarian) | TGI (EKVX NSCLC) | TGI (T-47D breast) | TGI (SW-620 colon) | TGI (IGROV1 ovarian) | TGI (SF-268 CNS) | TGI (HCT-15 colon) | TGI (ACHN renal) | TGI (SF-295 CNS) | TGI (MDA-MB-435) | TGI (NCI-H23 lung) | TGI (SNB-75 CNS) | TGI (HOP-62 NSCLC)
23.2 µM: TGI (SK-MEL-2 melanoma) | TGI (KM12 colon)
inactive: GI50 (A549 NSCLC) 3.35 µM | GI50 (OVCAR-4 ovarian) 3.74 µM | GI50 (SK-MEL-2 melanoma) 6.98 µM | GI50 (RPMI-8226 leukemia) 2.18 µM | GI50 (KM12 colon) 3.47 µM | GI50 (CAKI-1 renal) 3.25 µM | GI50 (HL-60(TB) leukemia) 2.35 µM | GI50 (M14 melanoma) 4.08 µM | GI50 (SR leukemia) 2.58 µM | GI50 (NCI-H460 lung) 8.35 µM | GI50 (NCI/ADR-RES ovarian) 4 µM | GI50 (SK-OV-3 ovarian) 7.31 µM | GI50 (A498 renal) 11 µM | GI50 (K-562 leukemia) 3.38 µM | GI50 (U251 CNS) 4.32 µM | GI50 (HCT-116 colon) 15.6 µM | GI50 (MCF7 breast) 3.59 µM | GI50 (SF-539 CNS) 4.79 µM | GI50 (HS 578T breast) 11.6 µM | GI50 (OVCAR-3 ovarian) 3.45 µM | GI50 (SNB-19 CNS) 6.31 µM | GI50 (COLO 205 colon) 4.01 µM | GI50 (OVCAR-8 ovarian) 5.38 µM | GI50 (OVCAR-5 ovarian) 5.75 µM | GI50 (EKVX NSCLC) 5.22 µM | GI50 (T-47D breast) 2.85 µM | GI50 (NCI-H226 lung) 5.09 µM | GI50 (MALME-3M melanoma) 5.69 µM | GI50 (PC-3 prostate) 2.58 µM | GI50 (SW-620 colon) 4.5 µM | GI50 (CCRF-CEM leukemia) 3.73 µM | GI50 (RXF 393 renal) 3.33 µM | GI50 (UACC-62 melanoma) 5.69 µM | GI50 (HOP-92 NSCLC) 2.57 µM | GI50 (IGROV1 ovarian) 5.58 µM | GI50 (SF-268 CNS) 4.52 µM | GI50 (LOX IMVI melanoma) 7.06 µM | GI50 (SN12C renal) 3.36 µM | GI50 (NCI-H522 lung) 3.56 µM | GI50 (SK-MEL-28 melanoma) 7.57 µM | GI50 (HCT-15 colon) 3.44 µM | GI50 (SK-MEL-5 melanoma) 2.71 µM | GI50 (DU-145 prostate) 4.41 µM | GI50 (MDA-MB-231 breast) 8.75 µM | GI50 (HT29 colon) 3.34 µM | GI50 (786-0 renal) 2.26 µM | GI50 (UACC-257 melanoma) 5.39 µM | GI50 (ACHN renal) 3.37 µM | GI50 (SF-295 CNS) 4.44 µM | GI50 (MDA-MB-435) 4.36 µM | GI50 (BT-549 breast) 4.4 µM | GI50 (NCI-H23 lung) 5.72 µM | GI50 (MOLT-4 leukemia) 2.92 µM | GI50 (SNB-75 CNS) 3.57 µM | GI50 (TK-10 renal) 8.41 µM | GI50 (UO-31 renal) 3.46 µM | GI50 (HOP-62 NSCLC) 7.71 µM | GI50 (HCC-2998 colon) 4.8 µM
18.8 µM: TGI (HCC-2998 colon)
9.05 µM: TGI (HOP-92 NSCLC)
8.16 µM: TGI (SK-MEL-5 melanoma)
44.5 µM: TGI (A498 renal)
18.3 µM: TGI (U251 CNS)
9.48 µM: TGI (SR leukemia)
88.8 µM: TGI (HS 578T breast)
50.9 µM: TGI (NCI-H522 lung)
10.7 µM: TGI (OVCAR-3 ovarian) | TGI (SN12C renal)
